Laboratory results reported in US20230086703A1, “N-(4-(5-chloropyridin-3-yl)phenyl)-2-(2-(cyclopropanesulfonamido)pyrimidin-4-yl) butanamide derivatives and related compounds as human CTPS1 inhibitors for the treatment of proliferative diseases” (Step Pharma S.A.S., priority 2019, published 2023).

target: T1, human CTPS1 (Homo sapiens, UniProt P17812); experiment: RapidFire/MS-based enzyme selectivity assay (human CTPS1 versus CTPS2), CTPS1 isoform; type: biochemical; settings: RapidFire/MS IC50 values of CTPS1 and CTPS2; Table 15
T1 construct: FLAG (with GG linker); His8 (with GG linker); purchased Proteros biostructures GmbH
T1 sequence (P17812 1-591): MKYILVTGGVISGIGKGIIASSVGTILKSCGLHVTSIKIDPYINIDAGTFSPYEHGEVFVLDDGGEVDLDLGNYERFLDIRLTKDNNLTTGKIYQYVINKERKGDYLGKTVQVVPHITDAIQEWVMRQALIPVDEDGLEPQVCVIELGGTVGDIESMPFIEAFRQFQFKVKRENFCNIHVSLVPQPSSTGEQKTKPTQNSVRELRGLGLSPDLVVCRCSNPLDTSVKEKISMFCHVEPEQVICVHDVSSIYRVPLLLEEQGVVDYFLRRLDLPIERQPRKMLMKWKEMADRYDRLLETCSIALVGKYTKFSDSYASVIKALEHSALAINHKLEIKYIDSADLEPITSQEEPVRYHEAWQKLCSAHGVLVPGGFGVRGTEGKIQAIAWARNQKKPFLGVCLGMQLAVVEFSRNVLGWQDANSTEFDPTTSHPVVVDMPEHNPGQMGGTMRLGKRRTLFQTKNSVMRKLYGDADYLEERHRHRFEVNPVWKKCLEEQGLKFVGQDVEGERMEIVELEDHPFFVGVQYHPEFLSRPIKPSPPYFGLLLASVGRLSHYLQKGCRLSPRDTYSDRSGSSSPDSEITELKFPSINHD
Outline: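 Full-length C-terminal FLAG-His-tagged CTPS1 (1-591) was preincubated 10 min at 25 °C with compound in HEPES pH 8.0 buffer with MgCl2, KCl, DTT and Tween-20. Reactions were started with a 2× mix of ATP 0.3 mM, UTP 0.2 mM, GTP 0.07 mM and L-glutamine 0.1 mM, and run in the linear phase at 25 °C. IC50 comes from the RapidFire-MS ratio of CTP to 13C9-15N3-CTP.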

SMILES	Selectivity (fold selectivity between CTPS1 and CTPS2)
CCOc1cncc(-c2ccc(NC(=O)C(F)(CC)c3cncc(NS(=O)(=O)C4CC4)n3)nc2)n1 (single isomer, unassigned) [P207, 2-(6-(cyclopropanesulfonamido)pyrazin-2-yl)-N-(5-(6-ethoxypyrazin-2-yl)pyridin-2-yl)-2-fluorobutanamide]	+ (2-30 fold (+))
CCOc1cncc(-c2ccc(C(=O)NCc3ccnc(NS(=O)(=O)C4CC4)n3)cc2)n1 [P118, N-((2-(cyclopropanesulfonamido)pyrimidin-4-yl)methyl)-4-(6-ethoxypyrazin-2-yl)benzamide]	+++ (>60 fold (+++))
CCOc1cncc(-c2ccc(NC(=O)C3(c4ccnc(NS(=O)(=O)C5CC5)n4)CCOCC3)c(F)c2)n1 [P143, 4-(2-(cyclopropanesulfonamido)pyrimidin-4-yl)-N-(4-(6-ethoxypyrazin-2-yl)-2-fluorophenyl)tetrahydro-2H-pyran-4-carboxamide]	+++ (>60 fold (+++))
CCOc1cncc(-c2ccc(NC(=O)C(C)(C)c3ccnc(NS(=O)(=O)C4CC4)n3)nc2)n1 [P31, 2-(2-(cyclopropanesulfonamido)pyrimidin-4-yl)-N-(5-(6-ethoxypyrazin-2-yl)pyridin-2-yl)-2-methylpropanamide]	+++ (>60 fold (+++))
CCOc1cncc(-c2ccc(NC(=O)C(CCOC)c3ccnc(NS(=O)(=O)C4CC4)n3)cc2)n1 (stereo not shown) [P110, 2-(2-(cyclopropanesulfonamido)pyrimidin-4-yl)-N-(4-(9-ethoxypyrazin-2-yl)phenyl)-4-methoxypbutanamide]	++ (>30-60 fold (++))
CC(C)Oc1cncc(-c2ccc(C(=O)NC(C)(C)c3cncc(NS(=O)(=O)C4CC4)n3)c(F)c2)n1 [P221, N-(2-(6-(cyclopropanesulfonamido)pyrazin-2-yl)propan-2-yl)-2-fluoro-4-(6-isopropoxypyrazin-2-yl)benzamide]	+ (2-30 fold (+))
CCOc1cncc(-c2ccc(NC(=O)C(F)(CC)c3ccnc(NS(=O)(=O)C4CC4)n3)nc2)n1 (single isomer, unassigned) [P114, 2-(2-(Cyclopropanesulfonamido)pyrimidin-4-yl)-N-(5-(6-ethoxypyrazin-2-yl)pyridin-2-yl)-2-fluorobutanamide]	+++ (>60 fold (+++))
CCOc1cncc(-c2cnc(NC(=O)C(CC)c3ccnc(NS(=O)(=O)C4CC4)n3)c(C)c2)n1 (stereo not shown) [P155, 2-(2-(cyclopropanesulfonamido)pyrimidin-4-yl)-N-(5-(6-ethoxypyrazin-2-yl)-3-methylpyridin-2-yl)butanamide]	+ (2-30 fold (+))
CCOc1cncc(-c2ccc(NC(=O)C(CC)c3cncc(NS(=O)(=O)C4CC4)n3)nc2)n1 (stereo not shown) [P201, 2-(6-(cyclopropanesulfonamido)pyrazin-2-yl)-N-(5-(6-ethoxypyrazin-2-yl)pyridin-2-yl)butanamide]	+++ (>60 fold (+++))
O=C(Cc1ccnc(NS(=O)(=O)C2CC2)n1)Nc1ccc(-c2cccnc2)cc1 [P16, 2-(2-(cyclopropanesulfonamido)pyrimidin-4-yl)-N-(4-(pyridin-3-yl)phenyl)acetamide]	++ (>30-60 fold (++))
CC(C)(C(=O)Nc1ccc(-c2cncc(C3CC3)n2)cn1)c1ccnc(NS(=O)(=O)C2CC2)n1 [P125, 2-(2-(cyclopropanesulfonamido)pyrimidin-4-yl)-N-(5-(6-cyclopropylpyrazin-2-yl)pyridin-2-yl)-2-methylpropanamide]	++ (>30-60 fold (++))
CCOc1cncc(-c2ccc(NC(=O)C(CCOC)c3ccnc(NS(=O)(=O)C4CC4)n3)nc2)n1 (stereo not shown) [P145, 2-(2-(cyclopropanesulfonamido)pyrimidin-4-yl)-N-(5-(6-ethoxypyrazin-2-yl)pyridin-2-yl)-4-methoxybutanamide]	+++ (>60 fold (+++))
CCOc1cncc(-c2ccc(NC(=O)C(C)(CCOC)c3cncc(NS(=O)(=O)C4CC4)n3)nc2)n1 (stereo not shown) [P198, 2-(6-(cyclopropanesulfonamido)pyrazin-2-yl)-N-(5-(6-ethoxypyrazin-2-yl)pyridin-2-yl)-4-methoxy-2-methylbutanamide]	+++ (>60 fold (+++))
CC(C)c1cncc(-c2ccc(NC(=O)C(C)(C)c3ccnc(NS(=O)(=O)C4CC4)n3)cc2)n1 [P132, 2-(2-(cyclopropanesulfonamido)pyrimidin-4-yl)-N-(4-(6-isopropylpyrazin-2-yl)phenyl)-2-methylpropanamide]	++ (>30-60 fold (++))
CCOc1cncc(-c2ccc(NC(=O)C(OC)c3ccnc(NS(=O)(=O)C4CC4)n3)cc2)n1 (stereo not shown) [P164, 2-(2-(cyclopropanesulfonamido)pyrimidin-4-yl)-N-(4-(6-ethoxypyrazin-2-yl)phenyl)-2-methoxyacetamide]	+ (2-30 fold (+))
CCC(C(=O)Nc1ccc(-c2cncc(Cl)c2)cc1)c1ccnc(NS(=O)(=O)C2CC2)n1 (stereo not shown) [P1, N-(4-(5-Chloropyridin-3-yl)phenyl)-2-(2-(cyclopropanesulfonamido)pyrimidin-4-yl)butanamide]	+ (2-30 fold (+))

same assay, conditions: RapidFire/MS IC50 values of CTPS1 and CTPS2; Table 17

SMILES	Selectivity (fold selectivity between CTPS1 and CTPS2)
CCOc1cncc(-c2ccc(NC(=O)C3(c4ccnc(NS(=O)(=O)C5CC5)n4)CCC4(CC3)OCCO4)nc2)n1 [P244, 8-(2-(cydopropanesulfonamido)pyrimidin-4-yl)-N-(5-(6-ethoxypyrazin-2-yl)pyridin-2-yl)-1,4-dioxaspiro[4.5]decane-8-carboxamide]	+++ (>60 fold (+++))
CCOc1cncc(-c2ccc(NC(=O)C3(c4ccnc(NS(=O)(=O)C5CC5)n4)CCC(=O)CC3)nc2)n1 [P226, 1-(2-(Cydopropanesulfonamido)pyrimidin-4-yl)-N-(5-(6-ethoxypyrazin-2-yl)pyridin-2-yl)-4-oxocyclohexanecarboxamide]	+++ (>60 fold (+++))

same assay, conditions: Table 16, human CTPS1 over human CTPS2, RapidFire/MS IC50 values

SMILES	Selectivity (fold selectivity between CTPS1 and CTPS2)
CC(C)(NC(=O)c1ccc(-c2cncc(C(F)(F)F)n2)cc1F)c1csc(NS(=O)(=O)C2CC2)n1 [R42, N-(2-(2-(cyclopropanesulfonamido)thiazol-4-yl)propan-2-yl)-2-fluoro-4-(6-(trifluoromethyl)pyrazin-2-yl)benzamide]	++ (>30-60 fold (++))
Cc1sc(NS(=O)(=O)C2CC2)nc1C(C)(C)NC(=O)c1ccc(-c2cncc(C(F)(F)F)n2)cc1 [R78, N-(2-(2-(cyclopropanesulfon-amido)-5-methylthiazol-4-yl)propan-2-yl)-4-(6-(trifluoromethyl)pyrazin-2-yl)benzamide]	++ (>30-60 fold (++))
O=C(NC1(c2csc(NS(=O)(=O)C3CC3)n2)CC1)c1ccc(-c2cncc(C(F)(F)F)n2)cc1 [R84, N-(1-(2-(cyclopropanesulfon-amido)thiazol-4-yl)cyclopropyl)-4-(6-(trifluoromethyl)pyrazin-2-yl)benzamide]	+++ (>60 fold (+++))
CCOc1cncc(-c2ccc(C(=O)NC(CCOC)c3csc(NS(=O)(=O)C4CC4)n3)c(F)c2)n1 (single isomer, unassigned) [R92, N-(1-(2-(cyclopropanesulfon-amido)thiazol-4-yl)-3-methoxypropyl)-4-(6-ethoxypyrazin-2-yl)-2-fluorobenzamide]	+++ (>60 fold (+++))
CCC(NC(=O)c1ccc(-c2cncc(F)c2)cc1)c1csc(NS(=O)(=O)C2CC2)n1 (single isomer, unassigned) [R69, N-(1-(2-(cyclopropanesulfon-amido)thiazol-4-yl)propyl)-4-(5-fluoropyridin-3-yl)benzamide]	+++ (>60 fold (+++))
CCOc1cncc(-c2ccc(C(=O)NC(C)c3csc(NS(=O)(=O)C4CC4)n3)c(F)c2)n1 (stereo not shown) [R91, N-(1-(2-(cyclopropanesulfon-amido)thiazol-4-yl)ethyl)-4-(6-ethoxypyrazin-2-yl)-2-fluorobenzamide]	+++ (>60 fold (+++))
CCOc1cncc(-c2ccc(C(=O)NC(C)(C)c3nc(NS(=O)(=O)C4CC4)sc3Cl)c(F)c2)n1 [R75, N-(2-(5-chloro-2-(cycloprop-anesulfonamido)thiazol-4-yl)propan-2-yl)-4-(6-ethoxypyrazin-2-yl)-2-fluorobenzamide]	+++ (>60 fold (+++))
